The subject of one experiment is 5-Lipoxygenase. Description: ARBL whole cell 5-lipoxygenase assay (LTB4 formation, RBL-1 cells). In kind it is cell-based, rat. As to conditions: 10 μM. As for the experimental part:
(§1) ARBL/ARBC Whole Cell 5-Lipoxygenase and Cyclooxygenase Assays The rat basophilic leukemia cell line (RBL-1) was obtained from the American Type Culture Collection (Rockville, Md.). Radioimmunoassay (RIA) kits of LTB4 and PGF2α were obtained from Amersham (Arlington Heights, Ill.) and Seragen (Boston, Mass.), respectively. All tissue culture media were obtained from GIBCO (Grand Island, N.Y.). RBL-1 cells are grown in suspension culture in Eagle's minimum essential medium supplemented with 12% fetal bovine serum at 37° C. in an incubator supplied with air-5% carbon dioxide. Cells are harvested by centrifugation. They are washed with cold phosphate buffered saline pH 7.4 (PBS; NaCl, 7.1 g; Na2 HPO4, 1.15 g; KH2 PO4, 0.2 g; and KCl, 0.2 g/l). Cells are finally suspended in PBS containing 1.0 mM calcium at a density of 2×10^6 cells/mi. Cells are incubated with and without test agent (in DMSO) (1% DMSO is without effect on arachidonic acid metabolism) for ten minutes at room temperature. Calcium ionophore A23187 (5 μM) is added and cells are incubated for 7 minutes at 37° C. The reaction is stopped by chilling the tubes on ice for 10 minutes. Cells are separated by centrifugation and the supernatant is stored at -20° Aliquots (100 μL) are analyzed for LTB4 and PGF2α using radioimmunoassay kits as provided by the supplier. […]

Experiment [1] has as its system Carrageenan-Induced Rat Foot Paw Edema. In words: Carrageenan-induced rat foot paw edema-2 (CFE-2) assay. The format is in vivo. As to conditions: 30 mg/kg, methanesulfonate salt, dosed one hour before carrageenan; edema at five hours. As for the experimental part: Carrageenan-Induced Rat Foot Paw Edema-2 (CFE-2) Assay: Protocol
Carrageenan solution (1% w/v) is prepared by dissolving 100 mg carrageenan (Marine Colloidal Div., Springfield, N.J.) in 10 mL of sterile saline (0.9%) solution (Travenol). The solution is vortexed for 30 to 45 minutes. Animals are dosed with compound one hour before carrageenan challenge. Foot paw edema is induced by injecting 0.10 ml of the 1% carrageenan subcutaneously into the plantar portion of the right hind paw of each rat under light anesthesia. Initial foot paw volume is measured immediately following carrageenan challenge using mercury plethysmography (Buxco Electronics). Edema is measured five hours after carrageenan. The difference between the five-hour and the initial paw volume is expressed as delta edema. The delta edema for each test group of animals is used to calculate the percent inhibition of edema achieved by-the compound at the test dose compared with the vehicle control group. The ID40 (the dose at which swelling is inhibited by 40%) is calculated by probit analysis for the dose at which 40 percent inhibition occurs.
For orientation: The carrageenan paw model is a standard test of acute inflammation.

The next experiment concerns Cyclooxygenase. Description: ARBC whole cell cyclooxygenase assay (PGF2α formation, RBL-1 cells). The format is cell-based, rat. Particulars: 10 μM. As for the experimental part: as §1

With `CC(C)(C)c1nc(/C=C/c2cccnc2)nc(C(C)(C)C)c1O` [Example 1, [E]-4,6-Bis(1,1-dimethylethyl)-2-[[2-(3-pyridinyl)]-ethenyl]-5-pyrimidinol], the “ARBL, % inhibition (LTB4 formation)” value in the experiment with 5-Lipoxygenase came to 100%. In experiment [1], the “% Inhibition of Edema” value came to 45%. Besides, the “ARBC, % inhibition (PGF2α formation)” value in the experiment with Cyclooxygenase is 85%.

On to `Cc1cc(C=Cc2nc(C(C)(C)C)c(O)c(C(C)(C)C)n2)sn1` [Example 3], for which the “ARBL, inhibition class (LTB4 formation)” value with 5-Lipoxygenase is “N* (<40% inhibition at 10 μM)”. Moreover, in the experiment with Cyclooxygenase, the “ARBC, % inhibition (PGF2α formation)” value amounted to 60%.
